What was measured:
potassium arsenate = compound: O=[As]([O-])(O)O.[K+] [potassium arsenate]; assay: thermal stability z-score vs DMSO; higher = more thermally stabilized by treatment; details: HeLa; arsenate concentration 1 mM
Experimental: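 Cellular thermal proteome profiling in HeLa cells treated with 1 mM arsenate for 1 h (DMSO pretreatment), heated to ten temperatures (37-66.3 °C). Soluble protein was quantified by TMT mass spectrometry relative to DMSO controls; the thermal stability score was transformed to a z-score; mean of n = 3 experiments.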

lipoamide = compound: NC(=O)CCCCC1CCSS1 [lipoamide]; assay: as above; details: HeLa, lipoamide concentration 100 µM
Experimental: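 Cellular thermal proteome profiling in HeLa cells. Cells were treated with 100 µM lipoamide for 1 h, with or without 1 mM arsenate for a further 1 h, then heated to ten temperatures (37-66.3 °C), and soluble protein was quantified by TMT mass spectrometry relative to 0.1% DMSO controls. The thermal stability score (sum of log2 fold changes minus the abundance score) was transformed to a z-score; mean of n = 3 experiments.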

[1] = arsenate co-treatment: 1 mM arsenate 1 h
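Also: each temperature applied for 3 min, abundance score taken as mean log2 fold change at the two lowest temperatures, z-score obtained by mean subtraction and division by SD.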

Chain of UniProt P22059 (P22059 whole entry): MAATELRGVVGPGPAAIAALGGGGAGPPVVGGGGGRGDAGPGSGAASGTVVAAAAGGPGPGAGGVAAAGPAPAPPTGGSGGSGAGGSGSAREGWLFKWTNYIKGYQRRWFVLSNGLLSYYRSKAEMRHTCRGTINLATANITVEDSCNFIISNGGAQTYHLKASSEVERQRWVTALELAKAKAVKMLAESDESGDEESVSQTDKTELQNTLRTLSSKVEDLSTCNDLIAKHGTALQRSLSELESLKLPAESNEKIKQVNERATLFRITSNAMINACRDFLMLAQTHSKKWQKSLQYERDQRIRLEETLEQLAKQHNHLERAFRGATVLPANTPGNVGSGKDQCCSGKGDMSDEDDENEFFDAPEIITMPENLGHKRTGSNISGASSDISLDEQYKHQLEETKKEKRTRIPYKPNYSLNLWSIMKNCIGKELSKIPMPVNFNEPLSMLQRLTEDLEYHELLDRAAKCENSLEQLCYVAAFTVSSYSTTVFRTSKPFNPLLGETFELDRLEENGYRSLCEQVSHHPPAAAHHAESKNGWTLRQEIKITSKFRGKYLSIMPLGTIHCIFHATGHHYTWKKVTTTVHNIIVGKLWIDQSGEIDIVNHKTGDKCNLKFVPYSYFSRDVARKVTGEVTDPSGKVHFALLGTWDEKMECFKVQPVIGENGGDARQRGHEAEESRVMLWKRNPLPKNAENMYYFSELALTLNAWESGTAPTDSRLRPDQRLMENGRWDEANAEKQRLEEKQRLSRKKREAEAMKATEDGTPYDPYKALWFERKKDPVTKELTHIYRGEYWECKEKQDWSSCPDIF
Chain of UniProt Q8N1F7 (Q8N1F7 whole entry): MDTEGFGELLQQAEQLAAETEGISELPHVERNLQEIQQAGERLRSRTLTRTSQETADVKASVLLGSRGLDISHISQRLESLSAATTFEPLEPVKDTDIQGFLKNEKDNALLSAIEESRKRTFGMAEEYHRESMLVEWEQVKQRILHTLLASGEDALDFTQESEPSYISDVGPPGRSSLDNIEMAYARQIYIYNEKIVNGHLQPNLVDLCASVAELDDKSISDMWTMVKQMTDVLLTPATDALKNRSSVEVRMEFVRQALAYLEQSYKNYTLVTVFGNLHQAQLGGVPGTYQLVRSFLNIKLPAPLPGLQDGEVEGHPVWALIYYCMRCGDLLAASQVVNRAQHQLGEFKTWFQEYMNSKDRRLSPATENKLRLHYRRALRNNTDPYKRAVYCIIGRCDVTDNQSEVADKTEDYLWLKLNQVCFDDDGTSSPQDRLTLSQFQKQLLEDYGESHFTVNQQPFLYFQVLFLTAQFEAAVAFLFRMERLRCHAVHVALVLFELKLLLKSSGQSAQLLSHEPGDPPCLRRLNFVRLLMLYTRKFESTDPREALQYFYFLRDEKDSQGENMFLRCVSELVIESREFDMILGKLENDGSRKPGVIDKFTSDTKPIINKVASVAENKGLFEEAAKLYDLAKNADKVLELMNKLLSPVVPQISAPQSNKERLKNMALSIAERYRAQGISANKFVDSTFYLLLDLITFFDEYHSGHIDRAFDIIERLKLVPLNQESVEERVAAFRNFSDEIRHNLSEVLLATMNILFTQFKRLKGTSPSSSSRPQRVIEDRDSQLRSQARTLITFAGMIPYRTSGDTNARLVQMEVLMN
Chain of UniProt Q92889 (Q92889 whole entry): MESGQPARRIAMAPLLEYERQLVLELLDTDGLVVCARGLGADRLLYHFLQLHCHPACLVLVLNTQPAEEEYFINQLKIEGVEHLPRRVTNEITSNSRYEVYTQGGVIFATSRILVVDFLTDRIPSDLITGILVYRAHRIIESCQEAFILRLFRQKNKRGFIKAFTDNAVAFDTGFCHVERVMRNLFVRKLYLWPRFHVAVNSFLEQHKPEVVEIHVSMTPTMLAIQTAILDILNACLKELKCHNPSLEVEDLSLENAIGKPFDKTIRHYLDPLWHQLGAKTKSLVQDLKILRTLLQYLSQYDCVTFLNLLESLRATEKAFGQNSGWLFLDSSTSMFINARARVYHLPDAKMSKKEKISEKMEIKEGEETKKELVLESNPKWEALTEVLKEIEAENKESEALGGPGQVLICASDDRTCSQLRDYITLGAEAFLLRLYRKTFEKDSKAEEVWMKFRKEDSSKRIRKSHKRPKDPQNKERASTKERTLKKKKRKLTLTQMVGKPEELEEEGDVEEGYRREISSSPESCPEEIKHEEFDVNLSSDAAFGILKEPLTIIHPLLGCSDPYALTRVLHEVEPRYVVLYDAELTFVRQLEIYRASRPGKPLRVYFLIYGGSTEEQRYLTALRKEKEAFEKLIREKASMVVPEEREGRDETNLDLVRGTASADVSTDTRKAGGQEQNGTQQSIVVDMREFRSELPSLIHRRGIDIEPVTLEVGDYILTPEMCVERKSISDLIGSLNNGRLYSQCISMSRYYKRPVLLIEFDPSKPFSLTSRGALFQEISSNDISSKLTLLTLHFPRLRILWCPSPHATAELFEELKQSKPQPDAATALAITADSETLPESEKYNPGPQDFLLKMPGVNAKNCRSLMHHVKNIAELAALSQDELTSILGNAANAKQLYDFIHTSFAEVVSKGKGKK
Chain of UniProt O94906 (O94906 whole entry): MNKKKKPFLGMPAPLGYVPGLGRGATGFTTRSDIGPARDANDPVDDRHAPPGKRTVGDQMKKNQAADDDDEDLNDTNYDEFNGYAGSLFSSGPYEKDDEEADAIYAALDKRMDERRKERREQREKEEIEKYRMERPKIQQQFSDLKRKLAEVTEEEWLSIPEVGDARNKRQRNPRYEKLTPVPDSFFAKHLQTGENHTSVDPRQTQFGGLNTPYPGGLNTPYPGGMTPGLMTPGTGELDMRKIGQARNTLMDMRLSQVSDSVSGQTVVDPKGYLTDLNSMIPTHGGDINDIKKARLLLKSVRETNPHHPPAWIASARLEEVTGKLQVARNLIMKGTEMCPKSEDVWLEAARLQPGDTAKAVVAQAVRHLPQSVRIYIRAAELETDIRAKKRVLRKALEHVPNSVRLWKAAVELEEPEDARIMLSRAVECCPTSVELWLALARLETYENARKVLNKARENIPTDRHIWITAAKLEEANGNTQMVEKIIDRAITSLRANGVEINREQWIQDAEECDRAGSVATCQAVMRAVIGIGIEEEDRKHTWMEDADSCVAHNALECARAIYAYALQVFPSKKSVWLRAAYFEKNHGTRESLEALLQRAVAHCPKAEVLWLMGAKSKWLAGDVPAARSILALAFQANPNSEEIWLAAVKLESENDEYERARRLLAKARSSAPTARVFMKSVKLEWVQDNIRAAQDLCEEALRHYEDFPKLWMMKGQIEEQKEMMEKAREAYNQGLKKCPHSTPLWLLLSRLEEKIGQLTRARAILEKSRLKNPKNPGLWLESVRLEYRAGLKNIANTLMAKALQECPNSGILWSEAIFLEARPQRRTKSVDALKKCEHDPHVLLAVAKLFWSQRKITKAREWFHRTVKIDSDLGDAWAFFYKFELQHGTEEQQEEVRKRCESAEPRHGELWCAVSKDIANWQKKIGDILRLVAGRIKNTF
Chain of UniProt O00541 (O00541 whole entry): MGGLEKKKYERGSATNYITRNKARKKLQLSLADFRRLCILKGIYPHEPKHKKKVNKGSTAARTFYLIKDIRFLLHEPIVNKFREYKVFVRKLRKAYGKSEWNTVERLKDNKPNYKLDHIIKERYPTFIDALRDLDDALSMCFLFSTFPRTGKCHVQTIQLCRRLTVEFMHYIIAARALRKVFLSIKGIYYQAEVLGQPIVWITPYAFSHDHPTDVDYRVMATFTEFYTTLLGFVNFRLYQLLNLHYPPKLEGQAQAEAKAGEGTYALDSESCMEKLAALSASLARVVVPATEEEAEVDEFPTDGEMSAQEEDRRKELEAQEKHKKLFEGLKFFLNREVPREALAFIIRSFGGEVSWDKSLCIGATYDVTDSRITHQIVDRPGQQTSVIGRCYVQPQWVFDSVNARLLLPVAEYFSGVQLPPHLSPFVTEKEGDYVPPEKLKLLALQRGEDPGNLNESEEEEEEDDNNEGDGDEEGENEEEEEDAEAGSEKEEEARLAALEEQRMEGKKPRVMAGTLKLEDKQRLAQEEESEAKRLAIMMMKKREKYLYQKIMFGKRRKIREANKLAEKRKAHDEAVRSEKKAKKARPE
Chain of UniProt Q08722 (Q08722 whole entry): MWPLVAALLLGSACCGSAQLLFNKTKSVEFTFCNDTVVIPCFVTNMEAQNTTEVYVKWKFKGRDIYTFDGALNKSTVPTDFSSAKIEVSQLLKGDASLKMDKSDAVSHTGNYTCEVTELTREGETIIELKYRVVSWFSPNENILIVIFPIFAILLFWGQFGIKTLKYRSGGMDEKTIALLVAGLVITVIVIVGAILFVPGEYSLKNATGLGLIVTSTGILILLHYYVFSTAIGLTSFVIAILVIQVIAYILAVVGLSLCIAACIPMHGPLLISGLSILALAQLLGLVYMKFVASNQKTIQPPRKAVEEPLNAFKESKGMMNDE
Chain of UniProt Q9UGV2 (Q9UGV2 whole entry): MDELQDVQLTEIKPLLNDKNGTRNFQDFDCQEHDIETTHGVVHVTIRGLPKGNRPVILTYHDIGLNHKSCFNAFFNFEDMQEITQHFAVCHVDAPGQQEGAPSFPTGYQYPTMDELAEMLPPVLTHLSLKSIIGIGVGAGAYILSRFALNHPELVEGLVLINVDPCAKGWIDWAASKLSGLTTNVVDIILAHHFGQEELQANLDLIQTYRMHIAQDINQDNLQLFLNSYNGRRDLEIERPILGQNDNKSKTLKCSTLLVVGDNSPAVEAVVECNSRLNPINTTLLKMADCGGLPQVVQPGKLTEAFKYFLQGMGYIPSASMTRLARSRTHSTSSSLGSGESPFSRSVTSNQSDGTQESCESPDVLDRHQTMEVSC
Chain of UniProt Q16718 (Q16718 whole entry): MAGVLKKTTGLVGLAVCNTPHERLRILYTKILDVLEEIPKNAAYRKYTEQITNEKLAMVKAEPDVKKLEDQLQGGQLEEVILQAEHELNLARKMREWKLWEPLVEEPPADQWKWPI
Chain of UniProt Q9Y2R0 (Q9Y2R0 whole entry): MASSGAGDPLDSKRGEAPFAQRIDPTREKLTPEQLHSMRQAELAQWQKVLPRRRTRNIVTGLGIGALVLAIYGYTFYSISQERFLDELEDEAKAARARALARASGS

Target	thermal stability z-score (potassium arsenate)	thermal stability z-score (lipoamide; [1])	thermal stability z-score (lipoamide; arsenate co-treatment: none)
NUP153 (UniProt P49790)	3.83	0.99	0.627
CD47 (UniProt Q08722)	0.869	2.42	1.31
TAP2 (UniProt Q03519)	0.366	-0.828	-0.526
STAT5B (UniProt P51692)	0.0458	-0.378	-0.11
FNTA (UniProt P49354)	0.355	-0.0233	-0.0253
ITGA5 (UniProt P08648)	0.211	0.408	0.203
MSRB3 (UniProt Q8IXL7)	0.269	0.866	0.887
DR1 (UniProt Q01658)	-0.043	0.466	0.257
GNB4 (UniProt Q9HAV0)	-0.65	0.329	0.753
MRPL49 (UniProt Q13405)	-0.254	-0.298	0.49
SPDL1 (UniProt Q96EA4)	1.2	0.746	0.706
PNPLA6 (UniProt Q8IY17)	0.246	0.758	0.548
UGGT2 (UniProt Q9NYU1)	0.289	-1.81	-1.31
CCDC12 (UniProt Q8WUD4)	-0.605	0.646	0.397
ATG4C (UniProt Q96DT6)	0.0488	0.0282	0.0873
AHCYL2 (UniProt Q96HN2)	-1.74	0.295	0.547
MEMO1 (UniProt Q9Y316)	0.0822	0.326	0.0877
NME6 (UniProt O75414)	0.083	0.102	0.493
CPSF3L (UniProt Q5TA45)	0.178	0.622	0.702
ATP11A (UniProt P98196)	-0.309	-0.441	0.419
MRPS11 (UniProt P82912)	0.34	0.302	-0.354
PUM2 (UniProt Q8TB72)	-0.343	-0.565	0.382
RAB13 (UniProt P51153)	0.695	-0.898	-0.475
TRIM27 (UniProt P14373)	-0.874	0.641	-0.0794

Target	thermal stability z-score (potassium arsenate)	thermal stability z-score (lipoamide; [1])	thermal stability z-score (lipoamide; arsenate co-treatment: none)
SCCPDH (UniProt Q8NBX0)	0.139	0.163	0.0672
DSCC1 (UniProt Q9BVC3)	-0.199	0.0551	0.0324
RPS29 (UniProt P62273)	-0.415	1.14	1.17
XRN2 (UniProt Q9H0D6)	-0.818	0.575	0.495
SKIV2L2 (UniProt P42285)	0.0276	0.46	0.334
NCKAP1 (UniProt Q9Y2A7)	-0.938	0.0716	0.602
STX16 (UniProt O14662)	0.553	-0.63	0.276
UBQLN2 (UniProt Q9UHD9)	-0.0552	1.26	0.932
RAN (UniProt P62826)	0.547	0.345	-0.105
ERCC4 (UniProt Q92889)	-0.123	-0.252	0.00197
MCCC1 (UniProt Q96RQ3)	-0.585	-0.187	-0.191
NDUFA5 (UniProt Q16718)	0.101	-0.0074	-0.146
SCYL2 (UniProt Q6P3W7)	-0.414	-0.369	-0.657
EXOSC8 (UniProt Q96B26)	-0.573	0.692	-0.359
NOB1 (UniProt Q9ULX3)	-0.873	-0.423	-0.679
TTI1 (UniProt O43156)	1.78	0.86	1.21
COA3 (UniProt Q9Y2R0)	0.126	0.463	0.725
PRPF6 (UniProt O94906)	-0.171	-0.136	-0.0563
TLE2 (UniProt Q04725)	0.141	-0.165	0.842
NUCKS1 (UniProt Q9H1E3)	0.5	0.697	0.845
TIGAR (UniProt Q9NQ88)	0.655	-1.91	0.677
FBXW11 (UniProt Q9UKB1)	0.814	0.162	-0.0669
FSCN1 (UniProt Q16658)	-1.09	0.0281	-0.236
NUP93 (UniProt Q8N1F7)	0.232	-0.614	-0.482

Target	thermal stability z-score (potassium arsenate)	thermal stability z-score (lipoamide; [1])	thermal stability z-score (lipoamide; arsenate co-treatment: none)
RPL26L1 (UniProt Q9UNX3)	0.434	0.252	0.884
PES1 (UniProt O00541)	-0.721	-0.108	0.121
GSPT2 (UniProt Q8IYD1)	-0.621	-0.0489	-0.153
TSEN34 (UniProt Q9BSV6)	-0.292	-1.1	0.117
PLXND1 (UniProt Q9Y4D7)	0.534	-0.194	-0.712
IL6ST (UniProt P40189)	-1.84	-1.74	-1
NCDN (UniProt Q9UBB6)	0.288	0.164	-0.266
ODR4 (UniProt Q5SWX8)	0.137	-0.0304	0.112
TIMP1 (UniProt P01033)	-0.272	-0.407	-1.02
HERPUD1 (UniProt Q15011)	-0.94	0.186	-0.201
RANBP9 (UniProt Q96S59)	-0.508	-0.364	-0.234
A0A0B4J2A0|SHPK	-0.112	-0.157	-0.0688
NDRG3 (UniProt Q9UGV2)	-1.65	-0.101	-0.269
AP3D1 (UniProt O14617)	0.577	-0.494	-0.336
TRIM29 (UniProt Q14134)	-0.177	-0.0886	0.185
HIP1R (UniProt O75146)	-0.232	0.15	0.28
CCT7 (UniProt Q99832)	-0.275	-0.0924	-0.191
PGGT1B (UniProt P53609)	0.268	-0.242	0.0735
TARS (UniProt P26639)	0.853	0.0423	-0.0639
DDOST (UniProt P39656)	0.00935	-3.14	-2.49
POLR2G (UniProt P62487)	-1.1	0.343	0.681
OSBP (UniProt P22059)	-1.62	0.983	0.414
ACTR3 (UniProt P61158)	-0.483	-0.149	0.128

— the supplement of paper PMC12463676, “Small-molecule dissolution of stress granules by redox modulation benefits ALS models” (Nature Chemical Biology, 2025)
